This experiment concerns the target recombinant 15-PGDH (Homo sapiens (Human), UniProt P15428). The experiment is described as follows: Enzyme inhibition of recombinant 15-PGDH, in vitro assay. It counts as biochemical. To be noted: recombinant human 15-PGDH; read-out: Enzyme inhibition (IC50).

Molecules are shown by their SMILES. pIC50: −log10 of the molar value.

Chain of recombinant 15-PGDH (P15428 whole entry): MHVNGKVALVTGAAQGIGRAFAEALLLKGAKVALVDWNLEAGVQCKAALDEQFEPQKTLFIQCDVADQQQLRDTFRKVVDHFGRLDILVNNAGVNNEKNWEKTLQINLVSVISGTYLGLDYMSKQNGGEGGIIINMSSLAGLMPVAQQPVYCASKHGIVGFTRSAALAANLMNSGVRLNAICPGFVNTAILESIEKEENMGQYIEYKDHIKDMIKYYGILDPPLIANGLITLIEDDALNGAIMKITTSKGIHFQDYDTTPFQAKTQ

On to `CCCC[S+]([O-])c1cc2nc(-c3ccc(OC)cc3)cc(-c3cccn3C)n2n1` (centres unmarked) [54a], for which the pIC50 is 7.70 to 8.40.

With `CCCCS(=O)(=O)c1ccc2nc(-c3ccccc3)c(-c3ccccc3)nc2c1` [4b], the negative-log IC50 (pIC50) was under 5.60.

In the case of `O=C(c1cc2nc(-c3ccc(Cl)cc3)cc(C(F)(F)F)n2n1)N1CCCCC1` [56a], the negative-log IC50 (pIC50) is under 5.60.

As to `COc1ccc(-c2cc(C(F)(F)F)n3nc(C(=O)N4CCC(F)(F)CC4)cc3n2)cc1` [59a], the pIC50 was 6.30 to 7.00.

Turning to `O=C(c1cc2nc(-c3ccc(O)cc3)cc(C(F)(F)F)n2n1)N1CCCCC1` [68a], the pIC50 was under 5.60.

Turning to `O=C(c1ccc2ncc(-c3ccc(F)cc3F)nc2c1)N1CCCCC1` [45b], the pIC50 is 8.40.

With `COc1ccc(-c2cc(-c3ccncc3Cl)n3nc(C(=O)N4CCCCC4)cc3n2)cc1` [26a], the negative logarithm of the IC50 (pIC50) is about 6.30.

In the case of `CCN(CC)C(=O)c1cc2nc(-c3ccc(OC)cc3)cc(C(F)(F)F)n2n1` [8a], the pIC50 is 7.00.

Turning to `CCCCSc1cc2nc(-c3ccc(OC)cc3)cc(C(F)(F)F)n2n1` [2a, 2-(butylthio)-5-(4-methoxyphenyl)-7-(trifluoromethyl)pyrazolo[1,5-a]pyrimidine], the pIC50 is under 5.60.

Regarding `Cn1cc(-c2cc(C(F)(F)F)n3nc(C(=O)N4CCCCC4)cc3n2)cn1` [38a], the pIC50 was under 5.60.

Regarding `COc1ccc(-c2cc(C(F)(F)F)n3nc(C(=O)N4CCC(OC)CC4)cc3n2)cc1` [21a], the pIC50 was 6.30 to 7.00.

Take `Nc1ccc(-c2cnc3ccc(C(=O)N4CCCCC4)cc3n2)cc1` [63b]: the pIC50 is 7.70 to 8.40.

On to `O=C(c1cc2nc(-c3cncnc3)cc(C(F)(F)F)n2n1)N1CCCCC1` [37a], for which the pIC50 was under 5.60.

For the compound `O=C(c1ccc2nc(-c3ccccc3)c(-c3cncnc3)nc2c1)N1CCCCC1` [36b], the pIC50 is 7.00 to 7.70.

As for `COc1ccc(-c2cc(OC)n3nc(C(=O)N4CCCCC4)cc3n2)cc1` [33a], the pIC50 is 7.00 to 7.70.

Turning to `Cc1c(C(N)=O)[nH]c2ccc(-c3cnc4ccc(C(=O)N5CCCCC5)cc4n3)cc12` [93b], the pIC50 is over 8.40.

On to `COc1ccc(-c2cc(N3CCCCC3)n3nc(C(=O)N4CCCCC4)cc3n2)cc1` [44a], for which the pIC50 is 6.30.

With `COc1ccc(-c2cc(C(F)(F)F)n3nc(C(=O)N4CCC(C(F)(F)F)CC4)cc3n2)cc1` [60a], the pIC50 was 5.60 to 6.30.

As for `CC(C)(O)Cn1ccc2cc(-c3cnc4ccc(C(=O)N5CCCCC5)cc4n3)ccc2c1=O` [89b], the pIC50 was about 8.40.

Regarding `CCCC[S+]([O-])c1cc2nc(-c3ccc(OC)cc3)cc(-c3cncnc3)n2n1` (centres unmarked) [52a], the pIC50 is 5.60.

For `O=C(c1cc2nc(-c3cccs3)cc(C(F)(F)F)n2n1)N1CCCCC1` [42a], the pIC50 was under 5.60.

Take `COc1ccc(-c2cc(C(F)(F)F)n3nc(C(=O)N4CCC(F)CC4)cc3n2)cc1` [15a]: the pIC50 is 7.38.

As for `O=C(c1cc2nc(-c3ccccc3C(F)(F)F)cc(C(F)(F)F)n2n1)N1CCCCC1` [43a], the negative-log IC50 (pIC50) is under 5.60.

For the compound `COc1ccc(-c2cc(C3CC3)n3nc(C(=O)N4CCCCC4)cc3n2)cc1` [67a], the pIC50 was 7.70 to 8.40.

Turning to `COc1ccc(-c2cc(-c3ccnc(F)c3)n3nc(C(=O)N4CCCCC4)cc3n2)cc1` [30a], the pIC50 is 7.00 to 7.70.

On to `COc1ccc(-c2cc(-c3cnn(C)c3)n3nc(C(=O)N4CCCCC4)cc3n2)cc1` [29a], for which the pIC50 was 7.00 to 7.70.

Regarding `CCCC[S+]([O-])c1cc2nc(-c3ccc(OC)cc3)cc(-c3cnc(C)n3C)n2n1` (centres unmarked) [70a], the negative logarithm of the IC50 (pIC50) is 6.30 to 7.00.

In the case of `COc1ccc(-c2cc(C(F)(F)F)n3nc(C(=O)N4CCCC(F)(F)C4)cc3n2)cc1` [65a], the pIC50 is 7.00.

In the case of `Cc1ccc(-c2cc(C(F)(F)F)n3nc(C(=O)N4CCCCC4)cc3n2)cc1` [40a], the negative logarithm of the IC50 (pIC50) is 6.40.

Regarding `COc1ccc(-c2cc(C)n3nc(C(=O)N4CCCCC4)cc3n2)cc1` [35a], the pIC50 was 7.00.

On to `O=C(NCCO)c1ccc2nc(-c3ccccc3)c(-c3ccccc3)nc2c1` [17b], for which the pIC50 is under 5.60.

`COc1ccc(-c2cc(C(F)(F)F)n3nc(C(=O)N4CCC(C)CC4)cc3n2)cc1` [18a]: the pIC50 was 7.51.

Values taken from patent US11718589B2, “Compositions and methods of modulating short-chain dehydrogenase” (CASE WESTERN RESERVE UNIVERSITY, priority 2017, dated 2023).
